Assay results from patent US8445502B2, “Pharmaceutical formulations comprising salts of a protein kinase inhibitor and methods of using same” (Astex Pharmaceuticals, Inc., priority 2007, dated 2013).
Where two headings read alike, the source gives them in different places.

Columns and labels:
[1] = both, Sprague Dawley, rat, in vivo, 72 h
Method: Four groups of Sprague Dawley rats, each consisting of two males and two females, received escalating single doses of 100, 200, 800 and 2000 mg/kg of the test article. MP470.HCl was suspended in an aqueous vehicle constituting 0.5% w/v carboxymethylcellulose and administered by oral gavage. […] Doses were based on body weights on the day of dosing. The animals were euthanized after the last observation. […] A single oral dose no-observed-effect level (NOEL) was 2000 mg/kg. Acute maximum tolerated dose (MTD) was greater than 2000 mg/kg (highest dose tested).

[2] = rat, in vivo
Method: Twenty-four rats were placed into four groups each consisting of three animals per sex. The animals were weighed the day before dosing, as well as just prior to dosing.
After intravenous infusion of MP470.HCl at 5 mg/kg, average MP470 peak plasma concentrations of 454.3 ng/mL for males and 370.7 ng/mL for females were attained at 0.083 hours (5 minutes), the first sampling point postdose. After oral administration of non-micronized MP470.HCl, peak plasma concentrations of MP470 were attained at 0.5-12 hours for Group 2 (25 mg/kg) and 4-12 hours for Group 3 (100 mg/kg, suspension). The extent of systemic exposure of rats to MP470, characterized by AUCO-∞, was approximately 3.8-fold and 2.9-fold higher in females than in males for Groups 2 and 3, respectively. Average AUCO-∞ values were higher at 100 mg/kg than at 25 mg/kg and the increases in AUCO-∞ were greater than dose-proportional.
After oral administration of micronized MP470.HCl (Group 4), peak plasma concentrations of MP470 were attained at 4-12 hours. The extent of systemic exposure of rats to MP470, characterized by AUCO-∞, was approximately 3.4-fold higher in females than in males for Group 4. The extent of exposure of rats to MP470, characterized by AUCO-∞, was 1.7-fold (males) and 1.4-fold (females) higher for non-micronized MP470 HCl (Group 3) than for micronized MP470 HCl (Group 4).

[3] = 28-day chronic oral tolerability and toxicokinetics in dog; type: in vivo; details: for mean liver weights compared with the control group / mean liver weights relative to brain weights compared with the control group: dosing period; for mean heart weights relative to body weight compared with the control group: recovery period; for AUC / Cmax / half-life: po
Method: In a chronic tolerability study of MP470 hydrochloride salt in the dog, groups of six male and six female dogs received 0, 30, 100, or 300 mg/kg/day of the test article (Groups 1-4, respectively) for 28 days. MP470.HCl was administered, by capsule, as a dry powder blend with sodium lauryl sulfate. […] In males, increased incidences of emesis and soft feces/diarrhea for Groups 3-4 and discolored and mucoid feces for Groups 2-4 were observed. In females, increased incidences of emesis and mucoid feces for Group 4, increased incidences of soft feces/diarrhea for Groups 3-4, and discolored feces for Groups 2-4 were noted. These clinical abnormalities were not considered adverse. No test article-related effects on body weight or food consumption were observed during the dosing or recovery periods. No test-article related lesions were noted during ophthalmic examinations and all electrocardiograms of the test and control animals were within normal limits. No test article related effects on hematology or urinalysis parameters were observed during the dosing or recovery periods.
Test article related effects on clinical chemistry parameters during the dosing period were limited to lower mean serum aspartate aminotransferase (75%) and plasma thyroxine (50%) levels for the Group 4 males when compared with the control group. […] Test article related organ weight changes during the recovery period were limited to statistically lower mean heart weights relative to body weight for the Group 3-4 females (85 and 89%, respectively) when compared with the control group.
There was adequate systemic exposure, in general plasma concentration of the test article increased relatively rapidly after treatment, followed by a steady decline for all dose groups and both sexes. Systemic exposure to the test article, as measured by Cmax and AUC, increased with increasing dose in both sexes, but the increase was generally less than dose proportional. No significant differences in exposure to the test article were observed between male and female dogs. No accumulation of the drug was evident as measured by difference in exposure between day 0 and day 27. The time to reach maximal plasma concentration (t-max) ranged from 2-4 hours for Groups 2 and 3 and ranged from 2-8 hours for Group 4. The terminal half-lives varied widely and ranged from 7-84.7 hours for Group 2, 16-47.7 hours for Group 3 and 10.5-28 hours for Group 4. […] There was a large variability in exposure.
A NOEL could not be determined; the no-observed-adverse-effect level (NOAEL) was considered to be 300 mg/kg/day (6000 mg/m2/d) for both sexes. A STD could not be calculated in this study and is likely to be higher than 300 mg/kg/day (6000 mg/m2/d).

[4] = Group 3 females (100 mg/kg/day)
[5] = Group 4 females (300 mg/kg/day)
[6] = both sexes, beagle, dog, in vivo, 30 mg/kg/day
[7] = both sexes, beagle, dog, in vivo, 100 mg/kg/day
[8] = both sexes, beagle, dog, in vivo, 300 mg/kg/day

Structure (SMILES): Cl.S=C(NCc1ccc2c(c1)OCO2)N1CCN(c2ncnc3c2oc2ccccc23)CC1 [MP470.HCl, 4-[1]benzofuro[3,2-d]pyrimidin-4-yl-N-(1,3-benzodioxol-5-ylmethyl)piperazine-1-carbothioamide hydrochloride]
- single oral dose no-observed-effect level (NOEL) [1]: 2000 mg/kg
- Acute maximum tolerated dose (MTD) ([1]; po): greater than 2000 mg/kg
- Bioavailability (%) ([2]; female): 100.21%
- AUC INF ([2]; female, iv, 5 mg/kg): 2530.9 ng·h/mL
- t1/2 ([2]; female, iv, 5 mg/kg): 2.6 to 2.9 h
- AUC INF ([2]; female, po, 25 mg/kg): 12681.6 ng·h/mL
- t1/2 ([2]; female, po, 25 mg/kg): 4.0 to 17.4 h
- Bioavailability (%) ([2]; male): 43.40%
- AUC INF ([2]; male, iv, 5 mg/kg): 1546.3 ng·h/mL
- t1/2 ([2]; male, iv, 5 mg/kg): 3.1 to 4.4 h
- AUC INF ([2]; male, po, 25 mg/kg): 3355.1 ng·h/mL
- t1/2 ([2]; male, po, 25 mg/kg): 2.8 to 4.2 h
- mean liver weights compared with the control group ([3]; Group 2 females (30 mg/kg/day)): 124%
- mean liver weights relative to brain weights compared with the control group ([3]; Group 2 females (30 mg/kg/day)): 117%
- mean liver weights compared with the control group [3, 4]: 123%
- mean liver weights relative to brain weights compared with the control group [3, 4]: 121%
- mean heart weights relative to body weight compared with the control group [3, 4]: 85%
- mean liver weights compared with the control group [3, 5]: 119%
- mean liver weights relative to brain weights compared with the control group [3, 5]: 120%
- mean heart weights relative to body weight compared with the control group [3, 5]: 89%
- NOAEL at 28 days ([3]; beagle, dog, in vivo, dogs, both sexes, 28 days, read-out: no-observed-adverse-effect level (NOAEL)): 300 mg/kg/day
- AUC [3, 6]: 97.9 to 1130 ng·h/mL
- Cmax [3, 6]: 42.5 to 154 ng/mL
- half-life [3, 6]: 420 to 5080 min
- AUC [3, 7]: 257 to 2530 ng·h/mL
- Cmax [3, 7]: 78.3 to 231 ng/mL
- half-life [3, 7]: 960 to 2860 min
- AUC [3, 8]: 559 to 4890 ng·h/mL
- Cmax [3, 8]: 192 to 329 ng/mL
- half-life [3, 8]: 630 to 1680 min
- STD (severely toxic dose) ([3]; both, beagle, dog, in vivo, 28 days): > 6000 mg/m2/d
- mortalities ([3]; dogs, 30, 100 or 300 mg/kg/day by capsule, 28 days): no mortalities
- time to reach maximal plasma concentration (t-max) ([3]; dogs, Group 4 (300 mg/kg/day)): 2 to 8 h
- time to reach maximal plasma concentration (t-max) ([3]; dogs, Groups 2 and 3 (30 and 100 mg/kg/day)): 2 to 4 h
- no-observed-adverse-effect level (NOAEL) ([3]; dogs, both sexes, 28 days): 6000 mg/m2/d
